Test results taken from publication PMC7265429, “Characterization of a new small-molecule inhibitor of HDAC6 in glioblastoma” (Cell Death & Disease, 2020).

Test system: GNS166 cells
Test: Microarray whole-transcriptome gene expression analysis
Assay type: cell-based, human
Conditions: 5 µM SAHA vs DMSO
Description: Whole-transcriptome analysis was performed from 300 ng of RNA using HuGene-2_0-st-v1 expression array (Affymetrix), which covers 48,226 transcripts. Raw data were first checked for quality purposes through the Affymetrix® Expression Console™ Software v1.4.1 and TAC software v4.0. Then, data were normalized using the Robust Multi-array Average (RMA) and analyzed by Limma tool. Probesets with FDR-corrected p-values smaller than 0.05 were selected. Functional enrichment on Gene Ontology (GO) biological processes was performed on a smaller subset of the differentially expressed genes (corrected p-value < 0.001) by means of Broad Institute GSEA. […] The data that support this study have been deposited in NCBI´s Gene Expression Omnibus and are accessible through GEO series accession number GSE143887.

O=C(CCCCCCC(=O)Nc1ccccc1)NO [SAHA, Suberoylanilide hydroxamic acid]
logFC, unannotated transcript (transcript 23067838): 2.48 | logFC, unannotated transcript (transcript 23070274): 1.496 | logFC, unannotated transcript (transcript 23074046): 2.262 | logFC, unannotated transcript (transcript 23076255): 1.316 | logFC, unannotated transcript (transcript 23076621): 1.363 | logFC CLCN4 (transcript TC0X00006593.hg.1): 1.5774 | logFC GRPR (transcript TC0X00006686.hg.1): 2.105 | logFC CNKSR2 (transcript TC0X00006758.hg.1): 1.439 | logFC TCEAL2 (transcript TC0X00007965.hg.1): 1.805 | logFC CXorf57 (transcript TC0X00008052.hg.1): 2.567 | logFC RNF128 (transcript TC0X00008054.hg.1): 2.588 | logFC TBC1D8B (transcript TC0X00008055.hg.1): 1.963 | logFC BCORL1 (transcript TC0X00008394.hg.1): 1.89 | logFC SPANXB1 (transcript TC0X00008599.hg.1): 3.183 | logFC SPANXA2 (transcript TC0X00008608.hg.1): 1.528 | logFC GABRQ (transcript TC0X00008747.hg.1): 2.318 | logFC SPRY3 (transcript TC0X00008881.hg.1): 1.925 | logFC ANOS1 (transcript TC0X00009025.hg.1): 2.202 | logFC TMEM47 (transcript TC0X00009356.hg.1): 2.2 | logFC SYN1 (transcript TC0X00009576.hg.1): 1.838 | logFC SLC7A3 (transcript TC0X00009972.hg.1): 2.306 | logFC PCDH19 (transcript TC0X00010326.hg.1): 2.715 | logFC GPC3 (transcript TC0X00010851.hg.1): 3.405 | logFC SPANXC (transcript TC0X00010990.hg.1): 2.79 | logFC TSPAN7 (transcript TC0X00011279.hg.1): 3.632 | logFC SPANXD (transcript TC0X00011403.hg.1): 2.719 | logFC SPRY3 (transcript TC0Y00006855.hg.1): 1.925 | logFC AZIN2 (transcript TC0100007705.hg.1): 2.1884 | logFC SGIP1 (transcript TC0100008631.hg.1): 2.667 | logFC WDR63 (transcript TC0100008897.hg.1): 2.0565 | logFC PLPPR4 (transcript TC0100009181.hg.1): 3.131 | logFC RIIAD1 (transcript TC0100009969.hg.1): 1.761 | logFC RGS4 (transcript TC0100010393.hg.1): 2.615 | logFC RGL1 (transcript TC0100010874.hg.1): 1.6746 | logFC HMCN1 (transcript TC0100010921.hg.1): 2.357 | logFC PLA2G4A (transcript TC0100010939.hg.1): 2.146 | logFC NFASC (transcript TC0100011316.hg.1): 2.226 | logFC SYT14 (transcript TC0100011463.hg.1): 1.552 | logFC PADI2 (transcript TC0100013076.hg.1): 2.104 | logFC RAB3B (transcript TC0100014191.hg.1): 2.825 | logFC EXTL2 (transcript TC0100015079.hg.1): 1.8773 | logFC TXNIP (transcript TC0100015598.hg.1): 1.6929 | logFC TDRKH (transcript TC0100015803.hg.1): 1.45 | logFC CRABP2 (transcript TC0100016018.hg.1): 2.073 | logFC TNFSF18 (transcript TC0100016427.hg.1): 2.171 | logFC NMNAT2 (transcript TC0100016649.hg.1): 2.678 | logFC KCNT2 (transcript TC0100016822.hg.1): 1.691 | logFC SUSD4 (transcript TC0100017446.hg.1): 2.012 | logFC CHML (transcript TC0100017948.hg.1): 2.064 | logFC EFNA3 (transcript TC0100018303.hg.1): 2.427 | logFC CREG1 (transcript TC0100018528.hg.1): 1.58 | logFC ATP6V1C2 (transcript TC0200006703.hg.1): 1.305 | logFC DPYSL5 (transcript TC0200007047.hg.1): 2.839 | logFC CHAC2 (transcript TC0200007590.hg.1): 1.314 | logFC MERTK (transcript TC0200008894.hg.1): 2.244 | logFC B3GALT1 (transcript TC0200009889.hg.1): 2.683 | logFC FAM171B (transcript TC0200010219.hg.1): 2.2716 | logFC MAP2 (transcript TC0200010636.hg.1): 3.414 | logFC BCL11A (transcript TC0200012713.hg.1): 2.328 | logFC PAIP2B (transcript TC0200013021.hg.1): 1.841 | logFC KCNH7 (transcript TC0200014775.hg.1): 2.8124 | logFC SCN9A (transcript TC0200014819.hg.1): 2.356 | logFC LRP2 (transcript TC0200014851.hg.1): 2.542 | logFC FKBP7 (transcript TC0200015082.hg.1): 2.583 | logFC CALCRL (transcript TC0200015193.hg.1): 2.705 | logFC SLC40A1 (transcript TC0200015211.hg.1): 1.178 | logFC MSTN (transcript TC0200015221.hg.1): 1.434 | logFC STAT4 (transcript TC0200015246.hg.1): 1.771 | logFC EPHA4 (transcript TC0200015815.hg.1): 1.855 | logFC ITPR1 (transcript TC0300006477.hg.1): 1.259 | logFC GRAMD1C (transcript TC0300008371.hg.1): 3.533 | logFC STXBP5L (transcript TC0300008524.hg.1): 1.686 | logFC TMEM108 (transcript TC0300008853.hg.1): 1.4353 | logFC PLS1 (transcript TC0300009033.hg.1): 1.34 | logFC MLF1 (transcript TC0300009310.hg.1): 1.587 | logFC SERPINI1 (transcript TC0300009412.hg.1): 3.206 | logFC GPR160 (transcript TC0300009459.hg.1): 1.716 | logFC VGLL3 (transcript TC0300011706.hg.1): 1.982 | logFC IGSF11 (transcript TC0300012109.hg.1): 2.1969 | logFC SLITRK3 (transcript TC0300013022.hg.1): 1.701 | logFC LAMP3 (transcript TC0300013336.hg.1): 2.279 | logFC CLDN1 (transcript TC0300013520.hg.1): 1.599 | logFC CEP19 (transcript TC0300013719.hg.1): 1.62 | logFC IFT80 (transcript TC0300014074.hg.1): 1.3192 | logFC CCDC39 (transcript TC0300014078.hg.1): 2.854 | logFC WDR19 (transcript TC0400007280.hg.1): 1.361 | logFC GABRB1 (transcript TC0400007419.hg.1): 2.377 | logFC CYP2U1 (transcript TC0400008347.hg.1): 1.641
